According to the NIST ThermoML archive (doi:10.1021/acs.jced.5b00197):

What was measured:
[1] = refractive index (Na D-line) (dimensionless); settings: 94.64 kPa, Liquid, Standard Abbe refractometry
[2] = refractive index (other wavelength) (dimensionless); settings: 94.64 kPa, Liquid, Standard Abbe refractometry
[3] = 96.64 kPa, Liquid, mechanical oscillator
[4] = refractive index (Na D-line) (dimensionless); xn = mol fraction of the nth substance listed; settings: 94.64 kPa, Liquid, Standard Abbe refractometry, x2 = 0
[5] = xn = mol fraction of the nth substance listed; settings: 96.64 kPa, Liquid, mechanical oscillator, x2 = 0
[6] = refractive index (other wavelength) (dimensionless); xn = mol fraction of the nth substance listed; settings: 94.64 kPa, Liquid, Standard Abbe refractometry, x2 = 0

CC(=O)O [acetic acid]
Settings	mass density, 293.15 K [kg/m3]	mass density, 298.15 K [kg/m3]	mass density, 303.15 K [kg/m3]	refractive index, 293.15 K	refractive index, 298.15 K	refractive index, 303.15 K
[1]	–	–	–	1.37224	1.37012	1.36809
[3]	1049.63	1043.57	1037.64	–	–	–

refractive index, [2]
Settings	Wavelength=404.7 nm	Wavelength=435.8 nm	Wavelength=486.1 nm	Wavelength=546.1 nm	Wavelength=587.6 nm	Wavelength=632.8 nm	Wavelength=644 nm	Wavelength=706.5 nm
293.15 K	1.38345	1.38034	1.37681	1.37386	1.3723	1.37087	1.37055	1.36896
298.15 K	1.38126	1.37816	1.37466	1.37174	1.37018	1.36876	1.36844	1.36686
303.15 K	1.37917	1.37611	1.37261	1.36968	1.36815	1.36675	1.36643	1.36485

Cc1ccccc1 [toluene]
Settings	mass density, 293.15 K [kg/m3]	mass density, 298.15 K [kg/m3]	mass density, 303.15 K [kg/m3]	refractive index, 293.15 K	refractive index, 298.15 K	refractive index, 303.15 K
[1]	–	–	–	1.49687	1.49406	1.49124
[3]	866.75	861.74	856.81	–	–	–

refractive index, [2]
Settings	Wavelength=404.7 nm	Wavelength=435.8 nm	Wavelength=486.1 nm	Wavelength=546.1 nm	Wavelength=587.6 nm	Wavelength=632.8 nm	Wavelength=644 nm	Wavelength=706.5 nm
293.15 K	1.52597	1.51768	1.50826	1.50069	1.497	1.49379	1.49306	1.48975
298.15 K	1.52295	1.51473	1.50537	1.49785	1.49419	1.49101	1.49028	1.48697
303.15 K	1.51996	1.51177	1.50248	1.495	1.49137	1.4882	1.48748	1.48419

Cc1ccccc1 [toluene] + CC(=O)O
Settings	mass density, 293.15 K [kg/m3]	mass density, 298.15 K [kg/m3]	mass density, 303.15 K [kg/m3]	refractive index, 293.15 K	refractive index, 298.15 K	refractive index, 303.15 K
[4]	–	–	–	1.49687	1.49406	1.49124
[5]	866.75	861.74	856.81	–	–	–

refractive index, [6]
Settings	Wavelength=404.7 nm	Wavelength=435.8 nm	Wavelength=486.1 nm	Wavelength=546.1 nm	Wavelength=587.6 nm	Wavelength=632.8 nm	Wavelength=644 nm	Wavelength=706.5 nm
293.15 K	1.52597	1.51768	1.50826	1.50069	1.497	1.49379	1.49306	1.48975
298.15 K	1.52295	1.51473	1.50537	1.49785	1.49419	1.49101	1.49028	1.48697
303.15 K	1.51996	1.51177	1.50248	1.495	1.49137	1.4882	1.48748	1.48419

O [water]
Settings	mass density, 298.15 K [kg/m3]	mass density, 303.15 K [kg/m3]	refractive index, 293.15 K	refractive index, 298.15 K	refractive index, 303.15 K
[1]	–	–	1.33308	1.33257	1.33198
[3]	996.61	994.87	–	–	–

refractive index, [2]
Settings	Wavelength=404.7 nm	Wavelength=435.8 nm	Wavelength=486.1 nm	Wavelength=546.1 nm	Wavelength=587.6 nm	Wavelength=632.8 nm	Wavelength=644 nm	Wavelength=706.5 nm
293.15 K	1.34276	1.34021	1.33716	1.33454	1.33313	1.33183	1.33153	1.33003
298.15 K	1.34222	1.33968	1.33665	1.33402	1.33262	1.33132	1.33102	1.32954
303.15 K	1.34161	1.33909	1.33604	1.33344	1.33203	1.33073	1.33044	1.32897

O [water] + CC(=O)O
Settings	mass density, 298.15 K [kg/m3]	mass density, 303.15 K [kg/m3]	refractive index, 293.15 K	refractive index, 298.15 K	refractive index, 303.15 K
[4]	–	–	1.33308	1.33257	1.33198
[5]	996.61	994.87	–	–	–

refractive index, [6]
Settings	Wavelength=404.7 nm	Wavelength=435.8 nm	Wavelength=486.1 nm	Wavelength=546.1 nm	Wavelength=587.6 nm	Wavelength=632.8 nm	Wavelength=644 nm	Wavelength=706.5 nm
293.15 K	1.34276	1.34021	1.33716	1.33454	1.33313	1.33183	1.33153	1.33003
298.15 K	1.34222	1.33968	1.33665	1.33402	1.33262	1.33132	1.33102	1.32954
303.15 K	1.34161	1.33909	1.33604	1.33344	1.33203	1.33073	1.33044	1.32897
